Key:
[1] = system: Human squamous carcinoma cell line SCC12F cells; assay: Cell growth / cell yield of SCC12F cells (Coulter counter); format: cell-based; settings: 100 μM; days 1, 3, 4, 5 after dosage
Description: Human squamous carcinoma cell line SCC12F cells were maintained in primary keratinocyte medium (300 ml DME, 100 ml F-12 nutrient supplement, 50 ml 10× adenine, 50 ml fetal bovine serum, 5 ml penicillin/streptomycin stock, and 0.5 ml of 10 μg/ml epidermal growth factor and hydrocortisone to final concentration of 1.4 μg/ml) and dosed with either water (diluent), 100 μM pTpT (T2, Midland Certified Reagent Company, Midland, Tex.) or 100 μM pdApdA (A2). Cells were harvested before dosing (day 0), and 1, 3, 4, and 5 days after dosage, and were counted by Coulter™ counter. After harvesting, the cells were processed for total RNA isolation and were analyzed by Northern blot. Addition of a control deoxyadenine dinucleotide (pdApdA), a compound very similar to pTpT but not readily dimerized by UV irradiation, and therefore rarely excised during the course of UV-induced DNA repair, has no effect.
In a second experiment, SCC12F cells were cultured as described above. Two or three days after seeding, the preconfluent cultures were given fresh medium supplemented with either 100 μM T2 or diluent as a control. Cells were collected daily by trypsinization and counted by Coulter™ counter. The cell yield in cultures treated with T2 was reduced by […] compared to that of paired control cultures after five days (FIG. 2). This corresponds to 2.3 population doublings in this time for control cells, compared with 1 doubling for T2-treated cells.
pTpT was previously found to inhibit cell cycle progression, at least in part through activation of p53 and subsequent upregulation of the cyclin dependent kinase inhibitor p21. Cultures of the human keratinocyte line SCC12F were treated with pTpT, SEQ ID NO: 1, SEQ ID NO: 6 or diluent alone as a negative control, collected and counted 48 hours later and processed for northern blot analysis of p21 mRNA expression. […] Thus, the sequences of the present invention activate p53 and inhibit cell proliferation similar to the effect of pTpT.
Exposure of keratinocytes to UVB irradiation affects the expression of genes involved in cell cycle arrest, DNA repair and cytokine production. Single-stranded oligonucleotides sharing sequence homology with the telomere 3′ overhang, when introduced into cells, mimic these UV effects. To identify other genes that may be similarly modulated, cells of keratinocyte origin (SCC12F; a human epidermal squamous cell carcinoma line provided by Dr. James Rheinwald of Harvard University) were exposed to solar simulated irradiation (SSR) (20 mJ/cm^2, measured at 285±5 nm), to an 11-base oligonucleotide (pGTTAGGGTTAG; SEQ ID NO:5) homologous to the telomere overhang (T-oligo), or to a complementary sequence as control [pCTAACCCTAAC; (SEQ ID NO:9) control oligonucleotide]. […] These are mitochondrial-transcribed genes whose encoded proteins participate in cellular respiration.

[2] = system: GADD 45, ERCC 3 and SDI 1 mRNA; assay: Northern blot of GADD 45, ERCC 3 and SDI 1 in SCC12F cells; format: cell-based, human; settings: 100 μM; as early as 24 hours, several days
Description: Paired cultures of SCC12F cells were maintained in a Dulbecco's modified Eagle's Medium-based keratinocyte growth medium (DMEM; GIBCO/BRL, Gaithersburg, Md.) supplemented with 10% fetal calf serum (Hyclone Labs, Logan, Utah) and epidermal growth factor as described (Hollander, M. C. et al., J. Biol. Chem. 268:328–336 (1992)). Pre-confluent cultures were given fresh medium supplemented with either 100 μM T2, or an equal volume of diluent. Cells were collected daily after additions, and processed for total RNA isolation using the Tri-Reagent extraction method (Molecular Research Center, Cincinnati, Ohio) following the protocol of the manufacturer. Ten micrograms of RNA from each sample was gel electrophoresed, transferred to a nylon filter and probed as described previously (Nada, A. et al., Exp. Cell Res. 211:90–98 (1994)). The cDNA for GADD 45 was generated by PCR using primers based on the human GADD 45 gene sequence (Mitsudomi, T. et al., Oncogene 7:171–180 (1992)). The cDNA for ERCC 3 was purchased from the American Type Culture Collection (ATCC, Rockville, Md.). The SDI 1 cDNA was a gift of Dr. J. Smith and has been described previously (Walworth, N.C. and Bernards, R., Science 271:353–356 (1996)).

contact hypersensitivity = assay: Contact hypersensitivity to DNFB (ear swelling); format: in vivo, C57B16 mice; settings: 30 μl of 100 μM BID×5d topical to abdominal skin before sensitization
Description: C57B16 mice were subjected to the following treatment prior to sensitization with the allergen DNFB, by topical administration to abdominal skin; no pretreatment, UVB irradiation (200 J/m^2/dx4d), pTpT, pApA, or vehicle alone (30 μl of 100 μM BID×5d).

TNF-α gene = assay: TNFα promoter CAT reporter transgene in skin; format: in vivo, mice; settings: intracutaneous pTpT 100 μM; LPS 1 μg/ml
Description: In another experiment, TNF-α gene activation was measured by utilizing mice carrying a CAT reporter transgene bearing the entire TNFα promoter and 3′-untranslated region. Transgenic mice were subjected to the following treatment prior to skin assay for CAT expression: UVB irradiation (200–700 J/m^2), intracutaneous injection of pTpT (100 μM); lipopolysaccharide (LPS 1 μg/ml) as positive control, or vehicle alone.

Row | Substance | cell growth rate [1] | mRNAs for GADD 45, ERCC 3 and SDI 1 [2] | ear swelling responses to DNFB challenge (contact hypersensitivity) | CAT activity in skin (TNF-α gene)
1 | deoxyadenine dinucleotide [pdApdA, reference compound] | has no effect | less effective or ineffective | 2.5±0.6 | 
2 | lipopolysaccharide [LPS, reference compound] |  |  |  | CAT activity was detected
